Measurements from ChEMBL document CHEMBL2010690, “Identification and evaluation of apoptotic compounds from Garcinia oligantha” (Bioorg Med Chem Lett, 2012).
The source made the active and inactive calls. The calls are words filed in the database; no cut-off is given here.

Legend:
Format in all cases: functional, cell-based
[1] = system: HeLa C3; assay: Induction of apoptosis in human HeLaC3 cells assessed as caspase-3 activation at 5 uM after 72 hrs by YFP/CFP-based FRET analysis
[2] = system: HeLa C3; assay: Induction of apoptosis in human HeLaC3 cells assessed as caspase-3 activation at 1 uM after 72 hrs by YFP/CFP-based FRET analysis
[3] = system: HeLa C3; assay: Induction of apoptosis in human HeLaC3 cells assessed as caspase-3 activation at 2.5 uM after 72 hrs by YFP/CFP-based FRET analysis
[4] = system: HeLa; assay: Cytotoxicity against human HeLa cells after 72 hrs by MTT assay
[5] = system: HeLa C3; assay: Induction of apoptosis in human HeLaC3 cells assessed as caspase-3 activation at 10 uM after 72 hrs by YFP/CFP-based FRET analysis
[6] = system: HeLa; assay: Induction of apoptosis in human HeLa cells assessed as increase in PARP cleavage at 10 uM after 24 hrs by Western blotting analysis
[7] = system: HeLa; assay: Induction of apoptosis in human HeLa cells assessed as increase in PARP cleavage at 10 uM after 48 hrs by Western blotting analysis
[8] = system: HeLa; assay: Induction of apoptosis in human HeLa cells assessed as increase in PARP cleavage at 5 uM after 24 hrs by Western blotting analysis
[9] = system: HeLa; assay: Induction of apoptosis in human HeLa cells assessed as increase in PARP cleavage at 5 uM after 48 hrs by Western blotting analysis

Row | Structure (SMILES) | Activity [1] | Activity [2] | Activity [3] | IC50 [4] [µM] | Activity [5] | Activity [6] | Activity [7] | Activity [8] | Activity [9]
1 | CC(=O)CC1(O)C(=O)c2oc3cc4c(c(O)c3c(=O)c2C(CC=C(C)C)(CC=C(C)C)C1=O)C=CC(C)(C)O4 (stereo unspecified) [OLIGANTHIN D] | inactive | inactive | inactive | 7.82 | Active |  |  |  | 
2 | CC(C)=CCC1(O)C(=O)c2oc3cc4c(c(O)c3c(=O)c2C(CC=C(C)C)(CC=C(C)C)C1=O)C=CC(C)(C)O4 (stereo unspecified) [OLIGANTHIN B] | Active | inactive | inactive | 1.52 | Active | Active | Active |  | 
3 | CO[C@@]12C=C3C(=O)c4c(O)cc(O)c(CC=C(C)C)c4O[C@@]34[C@@H](C1)C(C)(C)O[C@@]4(CC=C(C)C)C2=O [GAUDICHAUDIONE H] | Active | inactive | Active | 0.9 | Active |  |  | Active | Active
4 | CC(C)=CCC1(CC=C(C)C)C(=O)C(O)=C(O)c2oc3cc4c(c(O)c3c(=O)c21)C=CC(C)(C)O4 [OLIGANTHIN A] | Active | inactive | Active | 1.58 | Active |  |  | Active | Active
5 | CC(C)=CCc1c(O)cc2oc3c(c(=O)c2c1O)C(CC=C(C)C)(CC=C(C)C)C(=O)C(O)(CC=C(C)C)C3=O (stereo unspecified) [OLIGANTHIN C] | inactive | inactive | inactive | 4.15 | Active |  |  |  | 
